“Also recorded” adds a separate entry of the source.
Tests used:
[1] = PO pharmacokinetic study, oral exposure (Example B3); type: in vivo; settings: for AUC at 24 h: blood, po, 10 mg/kg gavage; for oral absorption, systemic exposure: in words
Description: The blood concentration of the compound was then determined at 0 (pre-dosing), 5 min, 15 min, 30 min, 1 hr, 2 hr, 4 hr, 8 hr, 24 hr time points by LC-MS/MS analysis (See Tables 1 and 2, vide supra).

[2] = test system: C57Bl6 mice; test: Determination of acute toxicity; settings: in words
Description: Acute toxicity tests were performed on C57Bl6 mice, male, 6 weeks old, n=6. […] The tests were performed under fed condition, by oral gavage of 100-400 μL compound suspension according to the body weight to desired dosages (mg/kg). The mice were supplied with drinking water all through the testing time. […] MED was determined in diabetic and steatosis mouse models (Table 9).
Acute toxicity tests were performed on C57Bl6 mice, male, 6 weeks old, n=6 for each dose. […] The tests were performed under fed condition, by oral gavage of 100-400 μL compound suspension according to the body weight to desired dosages (mg/kg). The mice were supplied with drinking water all through the testing time. Mouse behaviors were monitored every 15-30 minutes.

[3] = test system: high-fat diet (HFD)-induced diabetic mouse model; test: Efficacy in high-fat diet (HFD)-induced diabetic/fatty liver mouse model; type: in vivo; settings: HFD mice, 3 weeks; for reversing fatty liver (liver steatosis, H&E histology): 5 mg/kg PO daily
Description: For HFD induced diabetic mouse model, C57Bl6 mice (male, n=6) were induced to obese and diabetic conditions by feeding high-fat diet (HFD, 60% fat calories, Research Diet, Inc. New Brunswick, NJ) for 3-4 months. […] During the 3-week period, the mice continued feeding HFD. […] The blood glucose levels were measured after an overnight fast, plasma insulin levels were tested after 5-6 hours fast, and the glycated HbA1c levels were determined in whole blood samples.
FIG. 15C and FIG. 15D show liver sections from mice fed HFD following 3 weeks of treatment with Compounds 25 and 64, respectively (P.O. dosing of 5 mg/kg, by daily gavage).
Experiments were similarly performed with other compounds, in either high-fat diet induced diabetes and fatty liver models, or in db/db mouse model, or in both, by daily oral gavage administration with low dosages.

[4] = test system: CD-1 mice; test: Short-term (10-day) escalating toxicology study in CD-1 mice; type: in vivo, mouse; settings: in words
Description: (§1) Clinical signs, body weights, food consumptions, rectal temperature, hematology, serum chemistry, plasma exposure, necropsies, tissue histopathology, were examined.
(§2) The compound was administered as a homogeneous suspension in 0.5% CMC+1% Tween80 in water in a volume of 10 mL/kg for oral administration. There were two arms in the study: 5 mice in the toxicology group and 5 mice in the toxicokinetic (TK) satellite group. Clinical signs were recorded twice daily. Body weight and food consumption were recorded once daily. Rectal temperature was recorded once every two days for a total of 5 times throughout the study. Necropsies were conducted at the termination of the study. Hematology, serum chemistry, plasma exposure, and tissue distribution were evaluated post 10th dosing in the TK satellite animals. Histopathology was examined in selected organs/tissues. Based on the outcomes of the toxicology parameters, NOAEL (no-observable-adverse-effect-level) and MTD (maximal tolerable dose) were determined.

[5] = as above; type: in vivo, mouse; settings: mouse, in vivo; oral gavage once daily, 10 days, male CD-1 mice; read-out: NOAEL (no-observable-adverse-effect-level)
Description: as §1, §2

[6] = test system: LX-2 cells (human hepatic stellate cells); test: Inhibition of TGFβ-induced hepatic stellate cell differentiation into myofibroblast-like cells; type: cell-based; settings: TGFβ 10 ng/ml; for minimal effective concentration: Homo sapiens, LX-2, hepatic stellate cell differentiation to myofibroblast-like cells, 24 hours, read-out: Minimal inhibitory concentration; for inhibition of TGFβ-induced hepatic stellate cell differentiation: in words
Description: Liver fibrosis is one hallmark of NASH. […] This process could be modeled in vitro using the hepatic stellate differentiation experiment. The human hepatic stellate LX-2 cells were cultured within DMEM (Dulbecco's Modified Eagle Media, pH 7.4) supplied with 2% fetal bovine serum, 4.5 g/l glucose and 2 mM glutamine to 100 percent confluence. […] Cellular morphology was then examined under a microscope. As shown in FIG. 16 to FIG. 17, hepatic stellate cells could be induced by TGF-beta to differentiate into myofibroblast-like cells.

[7] = test system: C2C12 cells; test: Mitochondrial uncoupling activity by oxygen consumption rate (OCR) assay, Seahorse, in presence of oligomycin; type: cell-based, mouse; settings: for minimal effective concentration: Mus musculus, C2C12, in the presence of oligomycin 2.5 μM, read-out: COCR-min: minimal concentration increasing OCR in the presence of oligomycin; for effect on oxygen consumption rate (OCR): in words
In short: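 Mouse C2C12 myoblasts grown in 10% FBS medium had OCR measured on Seahorse XF96/XF24 sequentially: basal, after 2.5 μM oligomycin (final), then after compound at varying concentrations. Rotenone/antimycin A confirmed mitochondrial origin. COCR-min is the minimal compound concentration inducing OCR in the presence of oligomycin.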

SMILES | AUC at 24 h [1] | oral absorption, systemic exposure [1] | acute toxicity profile over DNP [2] | reversing fatty liver (liver steatosis, H&E histology) [3] | reducing blood triglyceride levels and non-HDL cholesterol levels ([3]; 5 mg/kg/day gavage) | short-term safety profile over DNP [4] | NOAEL at 240 h [5] | minimal effective concentration [6] | inhibition of TGFβ-induced hepatic stellate cell differentiation [6] | inhibition of TGFβ-induced hepatic stellate cell differentiation ([6]; listed as Compounds 25) | minimal effective concentration [7] | effect on oxygen consumption rate (OCR) [7] | inhibition of TGFβ-induced hepatic stellate cell differentiation ([6]; listed as Compound64)
COCCN(CCOC)Cc1cc(Cl)cc(C(=O)Nc2nc3ccc(C(F)(F)F)cc3s2)c1O [Compound 25, 3-((bis(2-methoxyethyl)amino)methyl)-5-chloro-2-hydroxy-N-(6-(trifluoromethyl)benzo[d]thiazol-2-yl)benzamide] | 10000 to 30000 ng·h/mL | excellent | drastically improved acute toxicity profiles over DNP | highly efficacious in reversing fatty liver | efficacious | drastically improved short-term safety profiles | 50 mg/kg/day | 7.5 µM | effectively inhibit the differentiation process; also recorded: prevents TGFβ-induced differentiation of LX-2 cells | able to directly inhibit hepatic stellate cell (HSC) activation in vitro | < 5 µM | very robust OCR induction at 3.0, 6.0, and 9.0 μM; also recorded: effectively uncouples mitochondria (induces OCR | –
COCCOCc1cc(C(F)(F)F)cc2sc(NC(=O)c3cc(Cl)cc(CN4C[C@@H](C)O[C@@H](C)C4)c3O)nc12 [Compound 64, 5-chloro-3-((cis-2,6-dimethylmorpholino)methyl)-2-hydroxy-N-(4-((2-methoxyethoxy)methyl)-6-(trifluoromethyl)benzo[d]thiazol-2-yl)benzamide] | 10000 to 30000 ng·h/mL | excellent | drastically improved acute toxicity profiles over DNP | highly efficacious in reversing fatty liver | – | drastically improved short-term safety profiles | 40 mg/kg/day | 1 µM | effectively inhibit the differentiation process; also recorded: able to directly inhibit hepatic stellate cell (HSC) activation in vitro | – | < 5 µM | increases OCR | prevents TGFβ-induced differentiation of LX-2 cells
